Experimental data published in ChEMBL document CHEMBL5532735, “Novel Furopyridine and Furopyrimidine Compounds as PI4K Inhibitors for Treating Malaria and Viral Infection” (ACS Med Chem Lett, 2024).

system: Plasmodium falciparum; test: Antimalarial activity against Plasmodium falciparum assessed as inhibition of parasite growth by [3H]hypoxanthine incorporation assay; assay type: functional, organism-based

| Structure (SMILES) | IC50 |
| --- | --- |
| Cn1cc(-c2cc3nccc(-c4cccc(S(C)(=O)=O)c4)c3o2)ccc1=O | < 10 nM |
| CC(C)(O)c1cc(-c2ccnc3cc(-c4ccc(S(C)(=O)=O)cc4)oc23)ccn1 | < 10 nM |
| CS(=O)(=O)c1ccc(-c2cc3nccc(-c4cccc(C5(O)CCC5)c4)c3o2)cc1 | < 10 nM |
| CC(C)(O)c1cccc(-c2ncnc3cc(-c4ccc(S(C)(=O)=O)cc4)oc23)c1F | < 10 nM |
| CC(C)(O)c1cccc(-c2ncnc3cc(-c4ccc(S(C)(=N)=O)cc4)oc23)c1F (stereo unspecified) | < 10 nM |
| CS(=O)(=O)c1ccc(-c2cc3nccc(-c4cccc(C5(O)CCC(F)(F)CC5)c4)c3o2)cn1 | < 10 nM |
